Measured values from patent US20050158280A1, “Method of reducing angiogenesis” (priority 2001, published 2005).

Columns and labels:
HUVEC [1] = conditions: cited from earlier work; for rate of ATP hydrolysis by EC: HUVEC after transfection, n=9, liposome treated controls 17.9
CD39 = conditions: HUVEC, cited from earlier work; for immunoreactive intact CD39 (densitometric analysis of Western blot): 48 h after transfection, control liposomes = 100%
HUVEC [2] = conditions: cited from earlier work
ATPDase/CD39 [3] = conditions: cited from earlier work; for Specific ADPase activity / ATPase activity: HUVEC lysate, n=6; for Specific ADPase activity: mean SD, control liposomes 26.0±3.1; for ATPase activity: control liposomes 28.2±4.6
CD39 mRNA = conditions: HUVEC, 48 h post-transfection; vs scrambled oligonucleotides and control liposomes; cited from earlier work
ATPDase/CD39 [4] = conditions: COS-7 cells; cited from earlier work
macrophages = test: Transmigration of macrophages on MATRIGEL-coated Transwell membranes; type: cell-based, mouse; conditions: for migration through MATRIGEL (FIG. 5, in words): cd39-null knockout (KO) macrophages; for number of transmigrated macrophages (normalized to wild-type): cd39-null macrophages, nonstimulated null 80±30.0% of wild-type; for number of transmigrated macrophages (normalized to wild-type) / number of transmigrated macrophages (normalized): MATRIGEL-coated Transwell; for number of transmigrated macrophages (normalized): wild-type macrophages, no endothelial cells, ATP 200 μmol/L, serotonin 20 μmol/L, MCP-1 50 ng/mL
Procedure: (§1) Transmigration assays through an endothelial cell monolayer were performed (Jones, G. E. J. Leukoc. Biol. 68:593-602, 2000). Murine 2F2B endothelial cells (ATCC) were plated on collagen type 1-coated polycarbonate inserts with 3-μm pores (Costar, Fisher Scientific) and then incubated in RPMI containing 5% FCS overnight to attain full confluence. Wild-type or cd39-null peritoneal macrophages were added to the upper chamber and incubated at 37° C. in 5% CO2 for 10 hours. In the lower chamber, culture media with chemoattractant factors at various combinations were added: ATP 200 μmol/L, serotonin 20 μmol/L, and monocyte chemoattractant factor-1 (MCP-1) 50 ng/mL. Nonadherent cells in both supernatant fluids were counted. In parallel experiments, inserts were precoated with collagen or MATRIGEL® alone. Wild-type and cd39-null macrophages were plated on the upper surface of coated inserts. Cells were allowed to adhere and migrate over a 6-hour period. Cells on the lower surface were fixed in 2% ethanol and stained with 0.2% crystal violet (Sigma). Four fields of vision (×400) per well were randomly chosen, and cell counts were performed manually by 2 observers in a blinded fashion.

peritoneal macrophages = test: Cytofluorometric (FACS) analysis of macrophage integrin/ICAM-1 surface expression; type: cell-based, mouse; conditions: 200 μmol/L, vs control; for αmβ2 (MAC-1) and ICAM-1 coexpression levels: quiescent cd39-null macrophages; for cell surface coexpression of αmβ2 (MAC-1) and ICAM-1: wild-type macrophages, 30 minutes
Procedure: After isolation, naive peritoneal macrophages were also stimulated for 30 minutes (or for 24 hours) in RPMI+5% FCS, both at 37° C., with ATP 200 μmol/L, or with ATPγS 200 μmol/L, and then washed with PBS. Nonspecific binding of isospecific IgG was controlled by incubation with isospecific IgG conjugated to FITC and phycoerythrin, respectively. Cells were double-stained with phycoerythrin-conjugated rat anti-mouse CD11b in conjunction with FITC-labeled anti-mouse intercellular adhesion molecule (ICAM)-1 (or very late antigen-1, -4), respectively. Fluorescence-activated cell sorter (FACS) analysis was performed (FACSCAN™, Becton Dickinson). Data were analyzed with CELLQUEST™ computer software (Becton Dickinson).

monocyte/macrophages = test: Transmigration of monocyte/macrophages through an endothelial cell monolayer; type: cell-based, mouse
Procedure: as §1

[5] = cd39-null monocyte/macrophages, ATP 200 μmol/L or MCP-1 50 ng/mL, spontaneous 6200±1200
[6] = wild-type monocyte/macrophages, ATP 200 μmol/L or MCP-1 50 ng/mL in lower chamber, spontaneous 4900±400

Molecule | rate of ATP hydrolysis by EC (HUVEC [1]) | immunoreactive intact CD39 (densitometric analysis of Western blot) (CD39) | Total cell protein content (HUVEC [2]) | Specific ADPase activity (ATPDase/CD39 [3]) | ATPase activity (ATPDase/CD39 [3]) | migration through MATRIGEL (FIG. 5, in words) (macrophages) | number of transmigrated macrophages (normalized to wild-type) (macrophages) | number of transmigrated macrophages (normalized) (macrophages) | αmβ2 (MAC-1) and ICAM-1 coexpression levels (peritoneal macrophages) | cell surface coexpression of αmβ2 (MAC-1) and ICAM-1 (peritoneal macrophages) | monocyte/macrophages migrated across the endothelial cell monolayer (monocyte/macrophages; [5]) | monocyte/macrophages migrated across the endothelial cell monolayer (monocyte/macrophages; [6]) | further results
5′-CTCCTTTGTATCTTCCATAAGTAGC-3′ (antisense CTCCTTTGTATCTTCCATAAGTAGC; chimeric second generation modifications, further chemistry not given here) [antisense oligonucleotides] | 4.8 pmole/min/10^6cells | 66% | 17.6±2.8 (g/10^6cells | 9.5±3.4 nmole Pi/min/mg protein | 15.1±3.4 nmole Pi/min/mg protein |  |  |  |  |  |  |  | boost of area under curve estimates of ATP release (HUVEC [1]; ADP-stimulated HUVEC, over first 15 min, compared to controls): 194%; apparent decrease in CD39 protein expression (qualitative Western blotting) (CD39; 48 h): approximately 40%; cell viability determined by trypan blue exclusion (HUVEC [2]): over 90%; ATPase activity, of control levels (ATPDase/CD39 [3]; HUVEC, residual activity): 53%; ATPase activity, of that for scrambled control oligomers (ATPDase/CD39 [3]; HUVEC, residual activity): 51%; Normalized ADPase activity, compared with scrambled oligomers (ATPDase/CD39 [3]; HUVEC, residual activity): 42%; Normalized ADPase activity, of control liposomes (ATPDase/CD39 [3]; HUVEC, residual activity): 36%; CD39 mRNA expression (Northern blotting) (CD39 mRNA): specifically inhibited transcription of CD39 mRNA; ADPase levels, of control cells transfected with CD39 cDNA (ATPDase/CD39 [4]): 15%; ATPase levels, of control cells transfected with CD39 cDNA (ATPDase/CD39 [4]): approximately 5%
5′-TTCGTATCTTCGCTAGCTTATACAC-3′ (TTCGTATCTTCGCTAGCTTATACAC; chemistry not given here) [scrambled control oligonucleotides, scrambled control oligonucleotide] | 19.6 pmole/min/10^6cells | 103% | 17.7±1.8 (g/10^6cells | 22.6±2.1 nmole Pi/min/mg protein | 29.1±1.2 nmole Pi/min/mg protein |  |  |  |  |  |  |  | 
Nc1ncnc2c1ncn2[C@@H]1O[C@H](COP(=O)(O)OP(=O)(O)OP(=O)(O)O)[C@@H](O)[C@H]1O [ATP, adenosine triphosphate] |  |  |  |  |  | no substantial effect | 108±24% | 230±20% | largely unaltered | increased significantly | 8,750±4,100 cells | 22,300±3,300 cells | 
Nc1ncnc2c1ncn2[C@@H]1O[C@H](COP(=O)(O)OP(=O)(O)OP(O)(O)=S)[C@@H](O)[C@H]1O [ATPγS] |  |  |  |  |  |  |  |  | largely unaltered | increased significantly |  |  | 
NCCc1c[nH]c2ccc(O)cc12 [serotonin] |  |  |  |  |  | no substantial effect | 98±20.0% | 120±20% |  |  |  |  | 
monocyte chemoattractant factor-1 [MCP-1] |  |  |  |  |  |  | 303±17% | 450±20% |  |  | 35,200±7,300 cells | 61,800±23,400 cells | 
